For one molecule, Concentration in blood and concentration results are on record in patent US4298739A, “Novel carbostyril derivatives” (priority 1977, dated 1981).

Series [1] is described as follows: Concentration in blood of male Wister rats. It is filed as in vivo. As to conditions: 30 mg/kg water suspension, 30 mg/kg; for Concentration in blood: Rat. The protocol: (§1) A water suspension of test compound was administered at the dose of 30 mg/kg to the overnight fasted male Wister rats and male beagle dogs, and after a predetermined period of time, blood was collected from said animals to obtain plasma. 2 to 3 Milliliters of 0.1 N-NaOH and 2 ml of CHCl3 were added to 1 ml of the obtained plasma, and the mixture was shaken and extracted in a shaker for 2 hours, and after centrifugal separation, the organic layer was washed with 2 ml of 0.1 N-HCl. This organic layer was then subjected to a freezing and thawing treatment, and after evaporating chloroform under nitrogen stream, the residue was redissolved in 100 μl of chloroform and spotted on a thin layer plate of "Silica Gel 60 F254 " manufactured by Merck & Co., Inc. This was developed in a chloroform: butanol mixed solvent (5:1) and determined by measuring the spots with same Rf value as the test compound according to the absorbance method by using Shimazu CS-910 Thin Layer Chromato-scanner,and therefrom the concentration (μg/ml) of test compound A in blood was determined.

The nature of series [2]: Concentration in blood of male beagle dogs. It is filed as in vivo. As to conditions: 30 mg/kg water suspension, 30 mg/kg; for Concentration in blood: Beagle dog. The protocol: as §1

Several values for one entry are separate records, joined by “and”; a condition that tells them apart may be missing. Identical values can stand only once.

For `CN(C(=O)CCCOc1ccc2[nH]c(=O)ccc2c1)C1CCCCC1` [compound 16, 6-[3-(N-Methyl-N-cyclohexylaminocarbonyl)propoxy]carbostyril], the Concentration in blood in series [1] (1 hr., 60 min) is 1060 ng/mL and 880 ng/mL; in series [1] (4 hr., 240 min), 710 ng/mL and 830 ng/mL; in series [1] (12 hr., 720 min), 730 ng/mL and 780 ng/mL; in series [2] (1 hr., 60 min) it was 130 ng/mL; in series [2] (2 hr., 120 min), 310 ng/mL; in series [2] (6 hr., 360 min) it was 210 ng/mL. Besides, in series [2] (12 hr., 720 min), the Concentration in blood worked out at 70 ng/mL. The concentration at 1 h in series [1] (rat, plasma, 1 hr.) stood at 900 ng/mL; in series [2] (dog, plasma, 1 hr.), 230 ng/mL. The concentration at 4 h in series [1] (rat, plasma, 4 hr.) amounted to 1100 ng/mL. Besides, the concentration at 12 h is 640 ng/mL in series [1] (rat, plasma, 12 hr.) and 40 ng/mL in series [2] (dog, plasma, 12 hr.). In series [2] (dog, plasma, 2 hr.), this molecule showed a concentration at 2 h of 280 ng/mL. This molecule showed a concentration at 6 h in series [2] (dog, plasma, 6 hr.) of 110 ng/mL.
